# Experimental data: patent publication US8410113B2, “(2R)-1-(3-chloro-2-pyrazinyl)-2-methylpiperazine and salts thereof” (Biovitrum AB (publ), priority 2002, dated 2013)
# Entries after “also recorded” stand apart in the source; their conditions may differ. Where two headings read alike, the source gives them in different places.
# Legend:
# [1] = Crystallinity (X-rays / powder X-ray diffraction); type: physicochemical; details: for Crystallinity (Powder X-Ray Diffraction): salts of Example 2C; for Crystallinity (X-Rays): salts of Example 2A; for degree of crystallinity (Powder X-Ray Diffraction): salts of Example 2B, fumarate
# Text: (§1) Crystallinity (Powder X-Ray Diffraction)
# as §1
# [2] = Hygroscopicity (DVS, storage at RT/different RHs and at 40° C./75% RH); type: physicochemical
# Protocol: Hygroscopicity (DVS, Storage at RT/Different RHs and at 40° C./75% RH)
# Solubility = test: Solubility
# Text: Solubility (Water, pH 1.2 and pH 7.4 Buffers)
# (§2) Solubility and Intrinsic Dissolution Rate
# [3] = Chemical stability during storage; details: long term storage; free base vs hydrochloride
# [4] = assessment, no test described, cited from earlier work
# [5] = controlled studies; cited from earlier work
# [6] = Chemical stability (2 weeks at 65° C.); type: physicochemical; details: salts of Example 2A, also RT/90% RH
# Protocol: Chemical Stability (2 Weeks at 65° C.)
# [7] = Polymorphism screen (RT evaporation, cooling crystallization at −20° C.); type: physicochemical; details: salts of Example 2A, cooling crystallization at −20° C. in different solvent or mixtures
# [8] = Intrinsic dissolution rate; type: physicochemical; details: for intrinsic dissolution rate (in words, order): salts of Example 2B
# Text: Intrinsic Dissolution Rate (pH 1.2)
# as §2
# [9] = salts of Example 2C, purified water, preliminary studies
# [10] = salts of Example 2A, DVS, storage at RT/different RHs
# [11] = listed as L-malate, L-malate salt
molecule,measurement,setting,value
"(2R)-1-[3-(2-{[2-(2-dimethylaminoethoxy)-3-pyridinyl]oxy}ethoxy)-2-pyrazinyl]-2-methylpiperazine, terephthalate",Crystallinity (Powder X-Ray Diffraction),[1],predominantly crystalline
same,Hygroscopicity,[2]; salts of Example 2C,hight (deliquescent)
same,solubility,Solubility; [9],< 1 mg/mL
"C[C@@H]1CNCCN1c1nccnc1OCCOc1cccnc1OCCN(C)C.O=C(O)CC(O)(CC(=O)O)C(=O)O [citrate, (2R)-1-[3-(2-{[2-(2-dimethylaminoethoxy)-3-pyridinyl]oxy}ethoxy)-2-pyrazinyl]-2-methylpiperazine, citrate]",Crystallinity (Powder X-Ray Diffraction),[1],practically amorphous
same,Hygroscopicity,[2]; salts of Example 2C,very hygroscopic and deliquescent
"C[C@@H]1CNCCN1c1nccnc1Cl.Cl [Example 9, (2R)-1-(3-chloro-2-pyrazinyl)-2-methylpiperazine, hydrochloride]",melting point,,209 to 210.5 °C
same,stability for storage,[3],considerably more stable
"C[C@@H]1CNCCN1c1nccnc1OCCOc1cccnc1.Cl [hydrochloride, (2R)-methyl-1-{3-[2-(3-pyridinyloxy)ethoxy]-2-pyrazinyl}piperazine, hydrochloride, reference compound]",Crystallinity (X-Rays),[1],lower crystallinity
same,Hygroscopicity,[2]; [10],deliquescent
"C[C@@H]1CNCCN1c1nccnc1OCCOc1cccnc1OCCN(C)C.O=P(O)(O)O [Example 3C, (2R)-1-[3-(2-{[2-(2-dimethylaminoethoxy)-3-pyridinyl]oxy}ethoxy)-2-pyrazinyl]-2-methylpiperazine, phosphoric acid salt]",Crystallinity (Powder X-Ray Diffraction),[1],predominantely crystalline to moderately crystallinity; also recorded: high crystallinity
same,Hygroscopicity,[2]; salts of Example 2C,low and low hygroscopicity
same,"solubility (in words, comparison of salts)",Solubility; salts of Example 2C,high solubility
same,solubility,Solubility; water,≥ 590 mg/mL
same,melting point,,140 to 168 °C
same,Toxicological acceptability,[4]; salts of Example 2C,low toxicity
"(2R)-1-[3-(2-{[2-(2-dimethylaminoethoxy)-3-pyridinyl]oxy}ethoxy)-2-pyrazinyl]-2-methylpiperazine, 1,3,5-benzenetricarboxylate",Crystallinity (Powder X-Ray Diffraction),[1],predominantly crystalline
same,Hygroscopicity,[2]; salts of Example 2C,low
same,"solubility (in words, comparison of salts)",Solubility; salts of Example 2C,lower than for the phosphoric acid salt
same,solubility,"Solubility; salts of Example 2C, SGF (simulated gastric fluid without enzymes; pH of filtrate 2.9), preliminary studies",> 19 mg/mL
same,solubility,"Solubility; salts of Example 2C, SIF (simulated intestinal fluid without enzymes; pH of filtrate 4.2), preliminary studies",11 mg/mL
same,solubility,Solubility; [9],≈ 4 mg/ml
"(2R)-1-[3-(2-{[2-(2-dimethylaminoethoxy)-3-pyridinyl]oxy}ethoxy)-2-pyrazinyl]-2-methylpiperazine, 1,5-naphthalenedisulfonate",Crystallinity (Powder X-Ray Diffraction),[1],predominantly crystalline
same,Hygroscopicity,[2]; salts of Example 2C,moderate
same,solubility,"Solubility; salts of Example 2C, medium not stated",> 540 mg/mL
CCOc1ncccc1OCCOc1nccnc1N1CCNC[C@H]1C.O=C(O)CCC(=O)O,melting point,,116 to 132 °C
CNCCC(Oc1ccc(C(F)(F)F)cc1)c1ccccc1 (stereo not drawn) [fluoxetine],weight reduction,[5],weight reduction
"C[C@@H]1CNCCN1c1nccnc1OCCOc1cccnc1.O=C(O)c1ccccc1 [benzoate, (2R)-methyl-1-{3-[2-(3-pyridinyloxy)ethoxy]-2-pyrazinyl}piperazine, benzoate]",Crystallinity (X-Rays),[1],Positive results
same,Hygroscopicity,[2]; [10],cake formation and darkening
same,Chemical stability,[6],Positive data
same,Polymorphism,[7],did not show other polymorphs
"(2R)-methyl-1-{3-[2-(3-pyridinyloxy)ethoxy]-2-pyrazinyl}piperazine, cinnamate",Crystallinity (X-Rays),[1],Positive results
same,behavior upon exposition to 40° C./75% RH,[2]; salts of Example 2A,good behavior
same,Intrinsic dissolution rate (IDR),"[8]; salts of Example 2A, pH 1.2",10^−3 mgsec^−1 cm^−2
same,Chemical stability,[6],Positive data
"CCOc1ncccc1OCCOc1nccnc1N1CCNC[C@H]1C [Example 2B, (2R)-1-(3-{2-[(2-ethoxy-3-pyridinyl)oxy]ethoxy}-2-pyrazinyl)-2-methylpiperazine]","intrinsic dissolution rate (in words, order)",[8],base<fumarate<succinate
"C[C@@H]1CNCCN1c1nccnc1OCCOc1cccnc1OCCN(C)C.O=C(O)CCC(=O)O [succinate, (2R)-1-[3-(2-{[2-(2-dimethylaminoethoxy)-3-pyridinyl]oxy}ethoxy)-2-pyrazinyl]-2-methylpiperazine, succinate]",Hygroscopicity,[2]; salts of Example 2C,very hygroscopic and deliquescent
same,"solubility (in words, comparison of salts)",Solubility; salts of Example 2B,higher than the fumarate salt
same,"intrinsic dissolution rate (in words, order)",[8],base<fumarate<succinate
"C[C@@H]1CNCCN1c1nccnc1OCCOc1cccnc1OCCN(C)C.O=C(O)C(O)C(O)C(=O)O [D-tartrate, (2R)-1-[3-(2-{[2-(2-dimethylaminoethoxy)-3-pyridinyl]oxy}ethoxy)-2-pyrazinyl]-2-methylpiperazine, D-tartrate]",Crystallinity (Powder X-Ray Diffraction),[1],low degree of crystallinity
same,Hygroscopicity,[2]; salts of Example 2C,very hygroscopic and deliquescent
"C[C@@H]1CNCCN1c1nccnc1OCCOc1cccnc1OCCN(C)C.O=C(O)C(=O)O [oxalate, (2R)-1-[3-(2-{[2-(2-dimethylaminoethoxy)-3-pyridinyl]oxy}ethoxy)-2-pyrazinyl]-2-methylpiperazine, oxalate]",Crystallinity (Powder X-Ray Diffraction),[1],high degree of crystallinity
same,Hygroscopicity,[2]; salts of Example 2C,low
same,Toxicological acceptability,[4]; salts of Example 2C,inappropriate due to toxicological reasons
CCN[C@@H](C)Cc1cccc(C(F)(F)F)c1 [dexfenfluramine],weight reduction,[5],weight reduction
"(2R)-1-(3-{2-[(2-ethoxy-3-pyridinyl)oxy]ethoxy}-2-pyrazinyl)-2-methylpiperazine, fumarate [reference compound]",Crystallinity (X-Rays),[1],lower crystallinity
same,Hygroscopicity,[2]; [10],hydrate conversion
same,Chemical stability,[6],less stable
"C[C@@H]1CNCCN1c1nccnc1OCCOc1cccnc1.O=C(O)C[C@H](O)C(=O)O [Example 3A, (2R)-methyl-1-{3-[2-(3-pyridinyloxy)ethoxy]-2-pyrazinyl}piperazine, L-malate salt]",Crystallinity (X-Rays),[1]; L-malate salt,higher crystallinity
same,Crystallinity (X-Rays),[1]; [11],Positive results; also recorded: high crystallinity
same,behavior upon exposition to 40° C./75% RH,[2]; salts of Example 2A,good behavior
same,Hygroscopicity,"[2]; salts of Example 2A, DVS, storage at RT/different RHs, L-malate salt",less hygroscopic
same,Hygroscopicity,"[2]; salts of Example 2A, DVS, storage at RT/different RHs, listed as L-malate, L-malate salt",low hygroscopicity
same,Chemical stability,[6]; L-malate salt,higher chemical stability
same,Chemical stability,[6]; [11],Positive data; also recorded: high chemical stability
same,Polymorphism,[7],did not show other polymorphs
same,Toxicological acceptability,[4]; salts of Example 2A,low toxicity
"C[C@@H]1CNCCN1c1nccnc1OCCOc1cccnc1OCCN(C)C.O=C(O)[C@@H](O)[C@H](O)[C@H](O)[C@@H](O)C(=O)O [galactareate, (2R)-1-[3-(2-{[2-(2-dimethylaminoethoxy)-3-pyridinyl]oxy}ethoxy)-2-pyrazinyl]-2-methylpiperazine, galactareate (mucic acid salt)]",Crystallinity (Powder X-Ray Diffraction),[1],partially amorphous
"C[C@@H]1CNCCN1c1nccnc1OCCOc1cccnc1OCCN(C)C.O=C(O)CN(CCN(CC(=O)O)CC(=O)O)CC(=O)O [edeteate, (2R)-1-[3-(2-{[2-(2-dimethylaminoethoxy)-3-pyridinyl]oxy}ethoxy)-2-pyrazinyl]-2-methylpiperazine, edeteate]",Crystallinity (Powder X-Ray Diffraction),[1],practically amorphous
same,Hygroscopicity,[2]; salts of Example 2C,very hygroscopic and deliquescent
"CCOc1ncccc1OCCOc1nccnc1N1CCNC[C@H]1C.O=C(O)/C=C/C(=O)O [fumarate, (2R)-1-(3-{2-[(2-ethoxy-3-pyridinyl)oxy]ethoxy}-2-pyrazinyl)-2-methylpiperazine, fumarate, reference compound]",degree of crystallinity (Powder X-Ray Diffraction),[1],succinate>acetate>fumarate
same,degree of crystallinity (Powder X-Ray Diffraction),[1]; listed as fumarate salt,inferior to that of the succinate salt
same,solubility,"Solubility; 0.9% w/w NaCl, saline or isotonic",> 93 mg/mL
same,solubility,"Solubility; phosphate buffer, pH 7.4, aqueous buffer",> 68 mg/mL
same,"solubility (in words, comparison of salts)",Solubility; salts of Example 2B,inferior to that of the succinate salt
same,"intrinsic dissolution rate (in words, order)",[8]; fumarate,base<fumarate<succinate
same,"intrinsic dissolution rate (in words, order)","[8]; listed as fumarate salt, fumarate",inferior to that of the succinate salt
